The test system of assay [1] is MDA-MB-231. Nature of the assay: drug sensitivity score (DSS); higher = more sensitive; extreme values may be limits of the assay. As to conditions: incubation time: 72 h. As for the experimental part: (§1)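 MDA-MB-231 breast cancer cells were transfected with siBRCA1 or non-targeting siControl, then seeded 24 h later at 4000 cells/well in 384-well plates holding 198 drugs at 5 concentrations. Viability was read by CellTiter-Blue after 72 h at 37 °C. Dose-response curves were fitted in Dotmatics to give IC50 and a drug sensitivity score (DSS: area under the curve relative to the area between the 10% threshold and 100% inhibition, normalised by the log of the top response). The dose range is not stated. IC50 values of 8333.3 or 4166.7 nM mark no response (top dose), and 0.8333 nM is the lower limit.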

Assay [2] deals with MDA-MB-231. As to conditions: incubation time: 72 h. As for the experimental part:
as §1

Where [3] appears, read: siRNA: siControl (non-targeting).

The text below walks through data of the supplement of paper PMC4649846.

Structures are written as SMILES.

For the compound `C[C@]12CC[C@H](O)CC1=CC[C@@H]1[C@@H]2CC[C@]2(C)C(c3cccnc3)=CC[C@@H]12` [Abiraterone], the drug sensitivity score in the assay on MDA-MB-231 [1] (siRNA: siBRCA1) and in the assay with MDA-MB-231 [1] (setting [3]) was 0 in each case. Besides, the “IC50 of cell viability” value in the assay with MDA-MB-231 [2] (siRNA: siBRCA1) and in the assay with MDA-MB-231 [2] (setting [3]) was greater than 4170 nM in each case.
Take `CN(C)C/C=C/C(=O)Nc1cc2c(Nc3ccc(F)c(Cl)c3)ncnc2cc1O[C@H]1CCOC1` [Afatinib]: the drug sensitivity score in the assay on MDA-MB-231 [1] (siRNA: siBRCA1) amounted to 4.43; in the assay with MDA-MB-231 [1] (setting [3]), 8.65. Besides, the “IC50 of cell viability” value in the assay with MDA-MB-231 [2] (siRNA: siBRCA1) was 3350 nM; in the assay on MDA-MB-231 [2] (setting [3]) it was 1680 nM.
For `Oc1ncnc2[nH]ncc12` [Allopurinol], the drug sensitivity score in the assay on MDA-MB-231 [1] (siRNA: siBRCA1) and with MDA-MB-231 [1] (setting [3]) was 0 each time. The “IC50 of cell viability” value in the assay with MDA-MB-231 [2] (siRNA: siBRCA1) and in the assay with MDA-MB-231 [2] (setting [3]) was greater than 4170 nM each time.
Take `CN(C)c1nc(N(C)C)nc(N(C)C)n1` [Altretamine]: the drug sensitivity score in the assay on MDA-MB-231 [1] (siRNA: siBRCA1) and in the assay on MDA-MB-231 [1] (setting [3]) was 0 each time. Further, the “IC50 of cell viability” value in the assay with MDA-MB-231 [2] (siRNA: siBRCA1) and in the assay with MDA-MB-231 [2] (setting [3]) was greater than 4170 nM each time.
Consider `CO[C@H]1/C=C\C=C(/C)C(=O)NC2=CC(=O)C(NCCN(C)C)=C(C[C@@H](C)C[C@H](OC)[C@H](O)[C@@H](C)/C=C(\C)[C@@H]1OC(N)=O)C2=O` [Alvespimycin], for which the drug sensitivity score in the assay on MDA-MB-231 [1] (siRNA: siBRCA1) came out at 20; in the assay on MDA-MB-231 [1] (setting [3]) it was 22.7. In addition, the entries for the “IC50 of cell viability” value in the assay on MDA-MB-231 [2] (siRNA: siBRCA1) and with MDA-MB-231 [2] (setting [3]) were 128 nM and 75.7 nM, respectively.
Turning to `CN1CC[C@H](c2c(O)cc(O)c3c(=O)cc(-c4ccccc4Cl)oc23)[C@H](O)C1` [Alvocidib], the drug sensitivity score turned out to be 18.8 in the assay with MDA-MB-231 [1] (siRNA: siBRCA1) and 20.2 in the assay on MDA-MB-231 [1] (setting [3]). The “IC50 of cell viability” value in the assay on MDA-MB-231 [2] (siRNA: siBRCA1) stood at 181 nM; in the assay with MDA-MB-231 [2] (setting [3]), 150 nM.
The like results for `NCCCNCCSP(=O)(O)O` [Amifostine] were, in that order, 0, 0, greater than 4170 nM and greater than 4170 nM.
In the case of `CCC1(c2ccc(N)cc2)CCC(=O)NC1=O` (stereo not drawn) [Aminoglutethimide], the drug sensitivity score in the assay on MDA-MB-231 [1] (siRNA: siBRCA1) and in the assay on MDA-MB-231 [1] (setting [3]) was 0 in each case. The “IC50 of cell viability” value with MDA-MB-231 [2] (siRNA: siBRCA1) and with MDA-MB-231 [2] (setting [3]) was greater than 4170 nM throughout.
On to `NCC(=O)CCC(=O)O` [Aminolevulinic acid], for which the drug sensitivity score with MDA-MB-231 [1] (siRNA: siBRCA1) and in the assay on MDA-MB-231 [1] (setting [3]) was 0 each time. Besides, the “IC50 of cell viability” value in the assay with MDA-MB-231 [2] (siRNA: siBRCA1) and in the assay on MDA-MB-231 [2] (setting [3]) was greater than 4170 nM each time.
`CN(C)CCN1C(=O)c2cccc3cc(N)cc(c23)C1=O` [Amonafide]: the drug sensitivity score came out at 8.98 in the assay on MDA-MB-231 [1] (siRNA: siBRCA1) and 6.72 in the assay on MDA-MB-231 [1] (setting [3]). Also, the figures for the “IC50 of cell viability” value in the assay with MDA-MB-231 [2] (siRNA: siBRCA1) and with MDA-MB-231 [2] (setting [3]) were 1790 nM and 2160 nM, respectively.
For the compound `O=C1CN2Cc3c(ccc(Cl)c3Cl)N=C2N1` [Anagrelide], the drug sensitivity score with MDA-MB-231 [1] (siRNA: siBRCA1) and in the assay on MDA-MB-231 [1] (setting [3]) was 0 in each case. In addition, the “IC50 of cell viability” value with MDA-MB-231 [2] (siRNA: siBRCA1) and in the assay on MDA-MB-231 [2] (setting [3]) was greater than 4170 nM in each case.
For the compound `CC(C)(C#N)c1cc(Cn2cncn2)cc(C(C)(C)C#N)c1` [Anastrozole], the drug sensitivity score with MDA-MB-231 [1] (siRNA: siBRCA1) and with MDA-MB-231 [1] (setting [3]) was 0 each time. The “IC50 of cell viability” value in the assay on MDA-MB-231 [2] (siRNA: siBRCA1) and in the assay on MDA-MB-231 [2] (setting [3]) was greater than 4170 nM each time.
On to `CNC(=O)c1ccccc1Sc1ccc2c(/C=C/c3ccccn3)n[nH]c2c1` [Axitinib], for which the drug sensitivity score with MDA-MB-231 [1] (siRNA: siBRCA1) and in the assay with MDA-MB-231 [1] (setting [3]) was 0 throughout. The “IC50 of cell viability” value in the assay on MDA-MB-231 [2] (siRNA: siBRCA1) and in the assay with MDA-MB-231 [2] (setting [3]) was greater than 4170 nM each time.
Turning to `Nc1ncn([C@@H]2O[C@H](CO)[C@@H](O)[C@H]2O)c(=O)n1` [Azacitidine], the drug sensitivity score in the assay on MDA-MB-231 [1] (siRNA: siBRCA1) and in the assay on MDA-MB-231 [1] (setting [3]) was 0 in each case. For the same compound, the “IC50 of cell viability” value in the assay with MDA-MB-231 [2] (siRNA: siBRCA1) and in the assay with MDA-MB-231 [2] (setting [3]) was greater than 4170 nM in each case.
Take `CNC(=O)c1cc(Oc2ccc(NC(=O)Nc3ccc(Cl)c(C(F)(F)F)c3)c(F)c2)ccn1` [BAY 73-4506]: the drug sensitivity score worked out at 4.52 in the assay with MDA-MB-231 [1] (siRNA: siBRCA1) and 2.71 with MDA-MB-231 [1] (setting [3]). Also, the “IC50 of cell viability” value is 900 nM in the assay with MDA-MB-231 [2] (siRNA: siBRCA1) and 813 nM in the assay on MDA-MB-231 [2] (setting [3]).
Turning to `CC[C@@H]1C(=O)N(C)c2cnc(Nc3ccc(C(=O)NC4CCN(C)CC4)cc3OC)nc2N1C1CCCC1` [BI 2536], the results for the drug sensitivity score with MDA-MB-231 [1] (siRNA: siBRCA1) and in the assay with MDA-MB-231 [1] (setting [3]) were 23.3 and 24.9, respectively. Moreover, the “IC50 of cell viability” value in the assay with MDA-MB-231 [2] (siRNA: siBRCA1) stood at 5.67 nM; with MDA-MB-231 [2] (setting [3]), 3.08 nM.
As for `COc1c(C)cnc(Cn2cnc3c(Cl)nc(N)nc32)c1C` [BIIB021], the drug sensitivity score in the assay with MDA-MB-231 [1] (siRNA: siBRCA1) amounted to 8.95; in the assay on MDA-MB-231 [1] (setting [3]), 9.35. The “IC50 of cell viability” value in the assay with MDA-MB-231 [2] (siRNA: siBRCA1) was found to be 869 nM; in the assay on MDA-MB-231 [2] (setting [3]) it was 1290 nM.
